Measurements reported in ChEMBL document CHEMBL3124916, “On the histone lysine methyltransferase activity of fungal metabolite chaetocin” (J Med Chem, 2013).
Active and inactive are the calls of the source. The calls are words filed in the database; no cut-off is given here.

Columns and labels:
[1] = biological target: T1, Histone-lysine N-methyltransferase EHMT2 (Homo sapiens) (UniProt Q96KQ7); experiment: Reversible inhibition of N-terminal GST-tagged recombinant human Histone-lysine N-methyltransferase G9a using S-(5'-adenosyl)-L-methionine chloride as substrate assessed as enzyme recovery at 10 fold IC50 preincubated for 30 mins followed by 100 fold dilution in presence of DTT
T1 sequence (whole entry): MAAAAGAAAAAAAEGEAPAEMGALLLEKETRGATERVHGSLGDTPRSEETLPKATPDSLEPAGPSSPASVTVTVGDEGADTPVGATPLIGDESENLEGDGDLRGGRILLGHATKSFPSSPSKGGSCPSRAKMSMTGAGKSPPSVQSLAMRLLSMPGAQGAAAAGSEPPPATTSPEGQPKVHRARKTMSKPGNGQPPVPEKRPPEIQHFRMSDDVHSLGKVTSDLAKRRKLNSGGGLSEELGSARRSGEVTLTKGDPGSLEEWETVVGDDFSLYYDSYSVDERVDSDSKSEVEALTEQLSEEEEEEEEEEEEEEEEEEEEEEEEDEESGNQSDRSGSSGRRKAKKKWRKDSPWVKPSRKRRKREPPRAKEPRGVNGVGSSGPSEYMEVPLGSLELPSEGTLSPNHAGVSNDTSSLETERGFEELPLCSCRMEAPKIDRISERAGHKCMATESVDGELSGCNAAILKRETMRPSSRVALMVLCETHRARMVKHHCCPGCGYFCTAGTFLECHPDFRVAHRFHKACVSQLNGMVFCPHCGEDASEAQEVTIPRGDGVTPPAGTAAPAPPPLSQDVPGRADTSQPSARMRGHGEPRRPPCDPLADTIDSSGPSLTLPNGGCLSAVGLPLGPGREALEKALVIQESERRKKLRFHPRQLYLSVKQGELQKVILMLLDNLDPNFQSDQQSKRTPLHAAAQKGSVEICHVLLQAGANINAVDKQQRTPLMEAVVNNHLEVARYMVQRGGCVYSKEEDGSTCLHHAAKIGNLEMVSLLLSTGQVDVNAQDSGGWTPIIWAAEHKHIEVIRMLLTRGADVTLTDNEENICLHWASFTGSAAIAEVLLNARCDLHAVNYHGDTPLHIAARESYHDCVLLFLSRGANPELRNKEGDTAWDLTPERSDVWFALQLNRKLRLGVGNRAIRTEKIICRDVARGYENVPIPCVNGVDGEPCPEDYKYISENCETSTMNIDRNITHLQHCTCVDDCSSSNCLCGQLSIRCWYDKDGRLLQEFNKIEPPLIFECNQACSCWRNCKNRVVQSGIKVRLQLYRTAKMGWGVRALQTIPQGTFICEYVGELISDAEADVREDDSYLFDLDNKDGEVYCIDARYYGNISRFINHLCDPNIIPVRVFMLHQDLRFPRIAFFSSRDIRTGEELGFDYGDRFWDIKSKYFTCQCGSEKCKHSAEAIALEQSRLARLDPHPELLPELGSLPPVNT

[2] = Induction of H2O2 generation in HBSS/Phenol Red buffer at 10 to 100 uM preincubated for 15 mins by HRP assay in presence of DTT; type: physicochemical; settings: 0.25 h
[3] = biological target: T1, Histone-lysine N-methyltransferase EHMT2 (Homo sapiens); experiment: Inhibition of N-terminal GST-tagged recombinant human Histone-lysine N-methyltransferase G9a using S-(5'-adenosyl)-L-methionine chloride as substrate assessed as nonspecific denaturation of enzyme at 0.05 to 25 uM preincubated for 30 mins in presence of urea and DTT
[4] = biological target: T1, Histone-lysine N-methyltransferase EHMT2 (Homo sapiens); experiment: Inhibition of N-terminal GST-tagged recombinant human Histone-lysine N-methyltransferase G9a using S-(5'-adenosyl)-L-methionine chloride as substrate assessed as residual activity at 25 uM after 30 mins; values are per cent of control
[5] = Inhibition of Neurospora crassa Histone H3-K9 methyltransferase dim-5
[6] = biological target: T2, Histone-lysine N-methyltransferase EHMT2 (Homo sapiens, UniProt Q96KQ7); experiment: Inhibition of N-terminal GST-tagged recombinant human Histone-lysine N-methyltransferase G9a using S-(5'-adenosyl)-L-methionine chloride as substrate after 30 mins
T2 sequence (Q96KQ7 whole entry): T1 sequence (whole entry)

[7] = biological target: T2, Histone-lysine N-methyltransferase EHMT2
Description: Competitive inhibition of N-terminal GST-tagged recombinant human Histone-lysine N-methyltransferase G9a using S-(5'-adenosyl)-L-methionine chloride as substrate preincubated for 30 mins followed by substrate addition measured after 30 mins

SMILES | inhibition [1] | Activity [2] | inhibition [3] | residual activity [4] [%] | IC50 [5] [µM] | IC50 [6] [µM] | IC50 [7] [µM]
CN1C(=O)[C@@]23C[C@]4([C@]56C[C@@]78SS[C@@](CO)(C(=O)N7[C@H]5Nc5ccccc56)N(C)C8=O)c5ccccc5N[C@@H]4N2C(=O)[C@]1(CO)SS3 [CHAETOCIN] | Active | Not Active | Active | 8 | 3 | 2.6 | –
CN1C(=O)[C@@]23C[C@]4([C@]56C[C@@]78S[C@@](CO)(C(=O)N7[C@H]5Nc5ccccc56)N(C)C8=O)c5ccccc5N[C@@H]4N2C(=O)[C@]1(CO)S3 | – | – | – | 36 | – | 10.6 | –
O=C1[C@@H]2SS[C@@H](C(=O)N2Cc2ccccc2)N1Cc1ccccc1 | Active | – | – | 19 | – | 4.9 | 5.11
Nc1ncnc2c1ncn2[C@@H]1O[C@H](CSCC[C@H](N)C(=O)O)[C@@H](O)[C@H]1O | – | – | inactive | – | – | – | –
